# Data reported in publication PMC8037182, “Solvothermal Synthesis of Multiple Dihydropyrimidinones at a Time as Inhibitors of Eg5” (Molecules, 2021).
# Experiments:
# [1] = test system: L929 cell line; test: Cytotoxicity MTS assay, L929 cell line; type: cell-based; conditions: for OD490 values, Mean / OD490 values, Well 1 / OD490 values, Well 2 / OD490 values, Well 3: L929 cell line, first assay
# In short: (§1)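 Cells seeded at 1000 per well, grown 24 h, then exposed to compound (0.5–100 µM final) for 24 h with 0.025% DMSO blank. MTS reagent added for 2 h at 37 °C, absorbance read at 490 nm; IC50 from non-linear regression of % viability versus concentration, three independent duplicate experiments.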
# [2] = test system: Hela cell line; test: Cytotoxicity MTS assay, Hela cell line; type: cell-based; conditions: for OD490 value, Mean / OD490 value, Well 1 / OD490 value, Well 2 / OD490 value, Well 3: Hela cell line, MTS;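 for OD490 value, Mean: blank control wells received 0.025% DMSO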;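 for OD490 value, Well 1: blank control wells received 0.025% DMSO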;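 for OD490 value, Well 2: blank control wells received 0.025% DMSO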;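 for OD490 value, Well 3: blank control wells received 0.025% DMSO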
# In short: as §1
smiles,measurement,setting,value
CCOC(=O)c1c(C2NC(=O)NC(C)=C2C(=O)Nc2ccccc2C)[nH]c(C(=O)OC)c1C (centres unmarked) [D2],"OD490 values, Mean",[1]; 0.5μM,1.3610
same,"OD490 values, Well 1",[1]; 0.5μM,1.3640
same,"OD490 values, Well 2",[1]; 0.5μM,1.3358
same,"OD490 values, Well 3",[1]; 0.5μM,1.3832
same,"OD490 values, Mean",[1]; 1μM,1.4199
same,"OD490 values, Well 1",[1]; 1μM,1.4170
same,"OD490 values, Well 2",[1]; 1μM,1.4018
same,"OD490 values, Well 3",[1]; 1μM,1.4410
same,"OD490 values, Mean",[1]; 10μM,1.4901
same,"OD490 values, Well 1",[1]; 10μM,1.4578
same,"OD490 values, Well 2",[1]; 10μM,1.4940
same,"OD490 values, Well 3",[1]; 10μM,1.5185
same,"OD490 values, Mean",[1]; 25μM,1.5070
same,"OD490 values, Well 1",[1]; 25μM,1.5039
same,"OD490 values, Well 2",[1]; 25μM,1.5321
same,"OD490 values, Well 3",[1]; 25μM,1.4850
same,"OD490 values, Mean",[1]; 50μM,1.4864
same,"OD490 values, Well 1",[1]; 50μM,1.5650
same,"OD490 values, Well 2",[1]; 50μM,1.4275
same,"OD490 values, Well 3",[1]; 50μM,1.4667
same,"OD490 values, Mean",[1]; 100μM,1.2316
same,"OD490 values, Well 1",[1]; 100μM,1.2364
same,"OD490 values, Well 2",[1]; 100μM,1.1967
same,"OD490 values, Well 3",[1]; 100μM,1.2618
same,IC50,"[1]; MTS assay, 24 h exposure, ordinary fibroblast, not cancer cells",> 150 µM
same,"OD490 value, Mean","[2]; 0.5μM, first assay",2.6241
same,"OD490 value, Well 1","[2]; 0.5μM, first assay",2.6512
same,"OD490 value, Well 2","[2]; 0.5μM, first assay",2.7230
same,"OD490 value, Well 3","[2]; 0.5μM, first assay",2.4982
same,"OD490 value, Mean","[2]; 0.5μM, second assay",2.6365
same,"OD490 value, Well 1","[2]; 0.5μM, second assay",2.7038
same,"OD490 value, Well 2","[2]; 0.5μM, second assay",2.6687
same,"OD490 value, Well 3","[2]; 0.5μM, second assay",2.5371
same,"OD490 value, Mean","[2]; 0.5μM, third assay",2.6753
same,"OD490 value, Well 1","[2]; 0.5μM, third assay",2.5959
same,"OD490 value, Well 2","[2]; 0.5μM, third assay",2.8645
same,"OD490 value, Well 3","[2]; 0.5μM, third assay",2.5656
same,"OD490 value, Mean","[2]; 1μM, first assay",2.5821
same,"OD490 value, Well 1","[2]; 1μM, first assay",2.5465
same,"OD490 value, Well 2","[2]; 1μM, first assay",2.6265
same,"OD490 value, Well 3","[2]; 1μM, first assay",2.5734
same,"OD490 value, Mean","[2]; 1μM, second assay",2.6167
same,"OD490 value, Well 1","[2]; 1μM, second assay",2.6874
same,"OD490 value, Well 2","[2]; 1μM, second assay",2.5987
same,"OD490 value, Well 3","[2]; 1μM, second assay",2.5641
same,"OD490 value, Mean","[2]; 1μM, third assay",2.6782
same,"OD490 value, Well 1","[2]; 1μM, third assay",2.5645
same,"OD490 value, Well 2","[2]; 1μM, third assay",2.7848
same,"OD490 value, Well 3","[2]; 1μM, third assay",2.6854
same,"OD490 value, Mean","[2]; 10μM, first assay",2.6025
same,"OD490 value, Well 1","[2]; 10μM, first assay",2.4718
same,"OD490 value, Well 2","[2]; 10μM, first assay",2.7280
same,"OD490 value, Well 3","[2]; 10μM, first assay",2.6077
same,"OD490 value, Mean","[2]; 10μM, second assay",2.7525
same,"OD490 value, Well 1","[2]; 10μM, second assay",2.8301
same,"OD490 value, Well 2","[2]; 10μM, second assay",2.6874
same,"OD490 value, Well 3","[2]; 10μM, second assay",2.7401
same,"OD490 value, Mean","[2]; 10μM, third assay",2.6780
same,"OD490 value, Well 1","[2]; 10μM, third assay",2.5659
same,"OD490 value, Well 2","[2]; 10μM, third assay",2.6898
same,"OD490 value, Well 3","[2]; 10μM, third assay",2.7784
same,"OD490 value, Mean","[2]; 25μM, first assay",2.6414
same,"OD490 value, Well 1","[2]; 25μM, first assay",2.4669
same,"OD490 value, Well 2","[2]; 25μM, first assay",2.6653
same,"OD490 value, Well 3","[2]; 25μM, first assay",2.7919
same,"OD490 value, Mean","[2]; 25μM, second assay",2.6474
same,"OD490 value, Well 1","[2]; 25μM, second assay",2.8835
same,"OD490 value, Well 2","[2]; 25μM, second assay",2.4699
same,"OD490 value, Well 3","[2]; 25μM, second assay",2.5888
same,"OD490 value, Mean","[2]; 25μM, third assay",2.6061
same,"OD490 value, Well 1","[2]; 25μM, third assay",2.5656
same,"OD490 value, Well 2","[2]; 25μM, third assay",2.6632
same,"OD490 value, Well 3","[2]; 25μM, third assay",2.5894
same,"OD490 value, Mean","[2]; 50μM, first assay",2.6499
same,"OD490 value, Well 1","[2]; 50μM, first assay",2.7237
same,"OD490 value, Well 2","[2]; 50μM, first assay",2.5642
same,"OD490 value, Well 3","[2]; 50μM, first assay",2.6617
same,"OD490 value, Mean","[2]; 50μM, second assay",2.5211
same,"OD490 value, Well 1","[2]; 50μM, second assay",2.6654
same,"OD490 value, Well 2","[2]; 50μM, second assay",2.5656
same,"OD490 value, Well 3","[2]; 50μM, second assay",2.3324
same,"OD490 value, Mean","[2]; 50μM, third assay",2.6330
same,"OD490 value, Well 1","[2]; 50μM, third assay",2.6547
same,"OD490 value, Well 2","[2]; 50μM, third assay",2.5655
same,"OD490 value, Well 3","[2]; 50μM, third assay",2.6788
same,"OD490 value, Mean","[2]; 100μM, first assay",1.9886
same,"OD490 value, Well 1","[2]; 100μM, first assay",2.0164
same,"OD490 value, Well 2","[2]; 100μM, first assay",1.9699
same,"OD490 value, Well 3","[2]; 100μM, first assay",1.9794
same,"OD490 value, Mean","[2]; 100μM, second assay",2.0267
same,"OD490 value, Well 1","[2]; 100μM, second assay",1.8863
same,"OD490 value, Well 2","[2]; 100μM, second assay",1.9925
same,"OD490 value, Well 3","[2]; 100μM, second assay",2.2014
same,"OD490 value, Mean","[2]; 100μM, third assay",2.0032
same,"OD490 value, Well 1","[2]; 100μM, third assay",1.9987
same,"OD490 value, Well 2","[2]; 100μM, third assay",2.0123
same,"OD490 value, Well 3","[2]; 100μM, third assay",1.9986
same,IC50,"[2]; MTS assay, 24 h exposure",> 150 µM
